Tests used:
Type in all cases: in vivo
[1] = system: barnyardgrass (Echinochloa crus-galli, ECHCG); test: Test A pre-emergence, barnyardgrass; settings: after 13 d
How it was run: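 Seeds were sown in standard soil in pots, kept one day in a glasshouse (24/16° C. day/night, 14 h light, 65% humidity), then sprayed with compound in acetone/water (50:50) containing 0.5% Tween 20 at 15.625, 62.5 or 250 g/ha. Plants grew on under the same conditions, watered twice daily, and damage was scored after 13 d (0 = none, 100 = total).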

[2] = system: corn (Zea mays, ZEAMX); test: Test A post-emergence, corn; settings: after 13 d
How it was run: (§1)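 Plants sown in standard soil were grown 8 d in a glasshouse (24/16 °C day/night, 14 h light, 65% humidity), then sprayed with compound in acetone/water (50:50) with 0.5% Tween 20 at 15.625, 62.5 or 250 g/ha. Damage was scored after 13 d (0 = none, 100 = total).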

[3] = system: barnyardgrass (Echinochloa crus-galli, ECHCG); test: Test A post-emergence, barnyardgrass; settings: after 13 d
How it was run: as §1

[4] = system: maize; test: Test D pre-emergence, maize seed treated with a herbicide safener; settings: ZEAMX, preemergent, 20 DAA
How it was run: (§2)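 Damage was rated visually from 0 (none) to 100 (total), at 20 DAA for pre-emergence and 15 d for post-emergence. Plants grew from safener-treated seed in a glasshouse at 24/18° C. or 20/16° C. day/night, 65% humidity, watered twice daily.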

[5] = system: plants; test: Test D post-emergence, other plants of Tables D2 and D4; settings: for ALOMY damage rating (100=total damage to plant; 0=no damage to plant) / AVEFA damage rating (100=total damage to plant; 0=no damage to plant) / BEAVA damage rating (100=total damage to plant; 0=no damage to plant) / BROTE damage rating (100=total damage to plant; 0=no damage to plant) / BRSNN damage rating (100=total damage to plant; 0=no damage to plant) / CHEAL damage rating (100=total damage to plant; 0=no damage to plant) / GALAP damage rating (100=total damage to plant; 0=no damage to plant) / HORVW damage rating (100=total damage to plant; 0=no damage to plant) / KCHSC damage rating (100=total damage to plant; 0=no damage to plant) / LOLPE damage rating (100=total damage to plant; 0=no damage to plant) / POAAN damage rating (100=total damage to plant; 0=no damage to plant) / POLCO damage rating (100=total damage to plant; 0=no damage to plant) / STEME damage rating (100=total damage to plant; 0=no damage to plant) / VERPE damage rating (100=total damage to plant; 0=no damage to plant): "Cereals" Postemergent, evaluated after 15 d
How it was run: as §2

[6] = post-emergence, rate 130, evaluated after 15 d
[7] = post-emergence, rate 250, evaluated after 15 d
[8] = post-emergence, rate 500, evaluated after 15 d

CN1C[C@H](c2nn(C)c3c(F)cccc23)[C@@H](C(=O)Nc2cccc(F)c2F)C1=O [Compound 2]
90: damage to plant (100=total damage; 0=no damage) ECHCG ([1]; Pre-Emergence at 15.625 g/ha) | damage to plant (100=total damage; 0=no damage) ECHCG ([1]; Pre-Emergence at 62.5 g/ha) | damage to plant (100=total damage; 0=no damage) ECHCG ([1]; Pre-Emergence at 250 g/ha) | damage to plant (100=total damage; 0=no damage) ECHCG ([3]; Post-Emergence at 62.5 g/ha) | damage to plant (100=total damage; 0=no damage) ECHCG ([3]; Post-Emergence at 250 g/ha)
80: POAAN damage rating (100=total damage to plant; 0=no damage to plant) ([5]; Rates 500) | damage to plant (100=total damage to plant; 0=no damage to plant), BRAPL [5, 7] | damage to plant (100=total damage to plant; 0=no damage to plant), BRAPL [5, 8] | damage to plant (100=total damage to plant; 0=no damage to plant), ECHCG [5, 7] | damage to plant (100=total damage to plant; 0=no damage to plant), ECHCG [5, 8] | damage to plant (100=total damage to plant; 0=no damage to plant), SETFA [5, 8]
70: POAAN damage rating (100=total damage to plant; 0=no damage to plant) ([5]; Rates 250) | damage to plant (100=total damage to plant; 0=no damage to plant), BRAPL [5, 6] | damage to plant (100=total damage to plant; 0=no damage to plant), DIGSA [5, 7] | damage to plant (100=total damage to plant; 0=no damage to plant), DIGSA [5, 8] | damage to plant (100=total damage to plant; 0=no damage to plant), SETFA [5, 6] | damage to plant (100=total damage to plant; 0=no damage to plant), SETFA [5, 7]
10: damage to plant (100=total damage; 0=no damage) ZEAMX ([2]; Post-Emergence at 15.625 g/ha) | damage to plant (100=total damage to plant; 0=no damage to plant), ZEAMX ([4]; rate 500) | ALOMY damage rating (100=total damage to plant; 0=no damage to plant) ([5]; Rates 250) | AVEFA damage rating (100=total damage to plant; 0=no damage to plant) ([5]; Rates 250) | BEAVA damage rating (100=total damage to plant; 0=no damage to plant) ([5]; Rates 130) | BEAVA damage rating (100=total damage to plant; 0=no damage to plant) ([5]; Rates 500) | GALAP damage rating (100=total damage to plant; 0=no damage to plant) ([5]; Rates 250) | VERPE damage rating (100=total damage to plant; 0=no damage to plant) ([5]; Rates 250) | damage to plant (100=total damage to plant; 0=no damage to plant), AMARE [5, 7] | damage to plant (100=total damage to plant; 0=no damage to plant), BIDPI [5, 8] | damage to plant (100=total damage to plant; 0=no damage to plant), EPHHL [5, 7] | damage to plant (100=total damage to plant; 0=no damage to plant), GLXMA [5, 8] | damage to plant (100=total damage to plant; 0=no damage to plant), IPOHE [5, 6] | damage to plant (100=total damage to plant; 0=no damage to plant), ORYSA [5, 8]
40: damage to plant (100=total damage; 0=no damage) ZEAMX ([2]; Post-Emergence at 250 g/ha) | AVEFA damage rating (100=total damage to plant; 0=no damage to plant) ([5]; Rates 500) | BRSNN damage rating (100=total damage to plant; 0=no damage to plant) ([5]; Rates 130) | BRSNN damage rating (100=total damage to plant; 0=no damage to plant) ([5]; Rates 500) | POLCO damage rating (100=total damage to plant; 0=no damage to plant) ([5]; Rates 500) | damage to plant (100=total damage to plant; 0=no damage to plant), EPHHL [5, 8]
0: damage to plant (100=total damage; 0=no damage) ZEAMX ([2]; Post-Emergence at 62.5 g/ha) | damage to plant (100=total damage; 0=no damage) ECHCG ([3]; Post-Emergence at 15.625 g/ha) | damage to plant (100=total damage to plant; 0=no damage to plant), ZEAMX ([4]; rate 15) | damage to plant (100=total damage to plant; 0=no damage to plant), ZEAMX ([4]; rate 30) | damage to plant (100=total damage to plant; 0=no damage to plant), ZEAMX ([4]; rate 60) | damage to plant (100=total damage to plant; 0=no damage to plant), ZEAMX ([4]; rate 130) | damage to plant (100=total damage to plant; 0=no damage to plant), ZEAMX ([4]; rate 250) | ALOMY damage rating (100=total damage to plant; 0=no damage to plant) ([5]; Rates 130) | AVEFA damage rating (100=total damage to plant; 0=no damage to plant) ([5]; Rates 130) | BROTE damage rating (100=total damage to plant; 0=no damage to plant) ([5]; Rates 130) | BROTE damage rating (100=total damage to plant; 0=no damage to plant) ([5]; Rates 250) | CHEAL damage rating (100=total damage to plant; 0=no damage to plant) ([5]; Rates 250) | GALAP damage rating (100=total damage to plant; 0=no damage to plant) ([5]; Rates 130) | GALAP damage rating (100=total damage to plant; 0=no damage to plant) ([5]; Rates 500) | HORVW damage rating (100=total damage to plant; 0=no damage to plant) ([5]; Rates 130) | KCHSC damage rating (100=total damage to plant; 0=no damage to plant) ([5]; Rates 130) | KCHSC damage rating (100=total damage to plant; 0=no damage to plant) ([5]; Rates 250) | KCHSC damage rating (100=total damage to plant; 0=no damage to plant) ([5]; Rates 500) | LOLPE damage rating (100=total damage to plant; 0=no damage to plant) ([5]; Rates 130) | LOLPE damage rating (100=total damage to plant; 0=no damage to plant) ([5]; Rates 250) | LOLPE damage rating (100=total damage to plant; 0=no damage to plant) ([5]; Rates 500) | POLCO damage rating (100=total damage to plant; 0=no damage to plant) ([5]; Rates 130) | STEME damage rating (100=total damage to plant; 0=no damage to plant) ([5]; Rates 130) | STEME damage rating (100=total damage to plant; 0=no damage to plant) ([5]; Rates 250) | STEME damage rating (100=total damage to plant; 0=no damage to plant) ([5]; Rates 500) | VERPE damage rating (100=total damage to plant; 0=no damage to plant) ([5]; Rates 130) | VERPE damage rating (100=total damage to plant; 0=no damage to plant) ([5]; Rates 500) | damage to plant (100=total damage to plant; 0=no damage to plant), ABUTH ([5]; post-emergence, ABUTH, rate 500, evaluated after 15 d) | damage to plant (100=total damage to plant; 0=no damage to plant), AMARE [5, 6] | damage to plant (100=total damage to plant; 0=no damage to plant), BIDPI [5, 6] | damage to plant (100=total damage to plant; 0=no damage to plant), BIDPI [5, 7] | damage to plant (100=total damage to plant; 0=no damage to plant), CYPES [5, 6] | damage to plant (100=total damage to plant; 0=no damage to plant), CYPES [5, 7] | damage to plant (100=total damage to plant; 0=no damage to plant), CYPES [5, 8] | damage to plant (100=total damage to plant; 0=no damage to plant), ELEIN [5, 6] | damage to plant (100=total damage to plant; 0=no damage to plant), ELEIN [5, 7] | damage to plant (100=total damage to plant; 0=no damage to plant), ELEIN [5, 8] | damage to plant (100=total damage to plant; 0=no damage to plant), EPHHL [5, 6] | damage to plant (100=total damage to plant; 0=no damage to plant), GLXMA [5, 6] | damage to plant (100=total damage to plant; 0=no damage to plant), GLXMA [5, 7] | damage to plant (100=total damage to plant; 0=no damage to plant), ORYSA [5, 6] | damage to plant (100=total damage to plant; 0=no damage to plant), ORYSA [5, 7] | damage to plant (100=total damage to plant; 0=no damage to plant), PANMI [5, 6] | damage to plant (100=total damage to plant; 0=no damage to plant), PANMI [5, 7] | damage to plant (100=total damage to plant; 0=no damage to plant), PANMI [5, 8] | damage to plant (100=total damage to plant; 0=no damage to plant), SIDSP [5, 6] | damage to plant (100=total damage to plant; 0=no damage to plant), SIDSP [5, 7] | damage to plant (100=total damage to plant; 0=no damage to plant), SIDSP [5, 8] | damage to plant (100=total damage to plant; 0=no damage to plant), SORVU [5, 6] | damage to plant (100=total damage to plant; 0=no damage to plant), SORVU [5, 7] | damage to plant (100=total damage to plant; 0=no damage to plant), SORVU [5, 8]
20: BEAVA damage rating (100=total damage to plant; 0=no damage to plant) ([5]; Rates 250) | CHEAL damage rating (100=total damage to plant; 0=no damage to plant) ([5]; Rates 500) | HORVW damage rating (100=total damage to plant; 0=no damage to plant) ([5]; Rates 250) | POAAN damage rating (100=total damage to plant; 0=no damage to plant) ([5]; Rates 130) | POLCO damage rating (100=total damage to plant; 0=no damage to plant) ([5]; Rates 250) | damage to plant (100=total damage to plant; 0=no damage to plant), IPOHE [5, 7]
30: ALOMY damage rating (100=total damage to plant; 0=no damage to plant) ([5]; Rates 500) | BROTE damage rating (100=total damage to plant; 0=no damage to plant) ([5]; Rates 500) | HORVW damage rating (100=total damage to plant; 0=no damage to plant) ([5]; Rates 500) | damage to plant (100=total damage to plant; 0=no damage to plant), AMARE [5, 8] | damage to plant (100=total damage to plant; 0=no damage to plant), IPOHE [5, 8]
50: BRSNN damage rating (100=total damage to plant; 0=no damage to plant) ([5]; Rates 250)
60: damage to plant (100=total damage to plant; 0=no damage to plant), DIGSA [5, 6]

— patent US20220281848A1, “PYRAZOLE-SUBSTITUTED PYRROLIDINONES AS HERBICIDES” (FMC Corporation, priority 2019, published 2022)
